Laboratory results reported in PMC12895000, “Structural and computational supported development of 2,5-disubstituted-1,3,4-oxadiazole analogues as active LOX, urease, and α-glucosidase inhibitors” (Scientific Reports, 2026).

Target: α-glucosidase (Saccharomyces cerevisiae, UniProt P53341)
Type: biochemical
Experimental: Inspection of α-glucosidase inhibition was made by using protocol mentioned in literature. 10 µl (0.057 units) of purified enzyme, 10 µl (0.5 mM) of the test compound and 70 µl (50 mM) of sodium phosphate buffer (pH = 6.8) were collected in a 96-well plate. Pre-incubation for 10 min at 37 °C was performed. Pre-reading was done at 400 nm. 10 µl (0.5 mM) of p-nitrophenyl glucopyranoside were added as a substrate. […] The collection of all data was made thrice. The formula given above allowed to calculate % of inhibition.

α-glucosidase, sequence (P53341 whole entry): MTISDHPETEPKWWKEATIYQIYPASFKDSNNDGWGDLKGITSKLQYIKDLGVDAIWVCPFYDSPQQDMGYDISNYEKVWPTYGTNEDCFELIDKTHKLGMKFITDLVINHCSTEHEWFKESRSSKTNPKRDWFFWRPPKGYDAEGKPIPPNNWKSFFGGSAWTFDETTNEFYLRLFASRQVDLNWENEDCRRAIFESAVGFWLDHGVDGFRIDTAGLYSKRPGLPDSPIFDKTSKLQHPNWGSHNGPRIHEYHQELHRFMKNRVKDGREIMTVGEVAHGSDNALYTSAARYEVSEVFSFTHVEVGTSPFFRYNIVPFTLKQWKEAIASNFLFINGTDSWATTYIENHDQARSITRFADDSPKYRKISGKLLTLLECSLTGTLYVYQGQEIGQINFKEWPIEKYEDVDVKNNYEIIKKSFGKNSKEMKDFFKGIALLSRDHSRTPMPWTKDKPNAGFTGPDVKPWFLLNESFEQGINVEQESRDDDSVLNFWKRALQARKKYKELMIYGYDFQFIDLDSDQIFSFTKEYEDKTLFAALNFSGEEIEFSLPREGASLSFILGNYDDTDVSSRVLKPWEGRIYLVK

C[C@H]1O[C@H](O[C@H]2[C@H](O)[C@@H](O)[C@@H](O[C@H]3[C@H](O)[C@@H](O)C(O)O[C@@H]3CO)O[C@@H]2CO)[C@H](O)[C@@H](O)[C@@H]1N[C@H]1C=C(CO)[C@@H](O)[C@H](O)[C@H]1O (stereo partly shown) [Acarbose]
α-Glucosidase Inhibition (%) at 0.5 Mm: 65.73 ± 1.93%
